Among the test systems are HT29 colon; M14 melanoma; MDA-MB-231 breast; NCI/ADR-RES ovarian; OVCAR-3 ovarian; PC-3 prostate; RXF 393 renal; SK-MEL-5 melanoma; SN12C renal; UACC-62 melanoma.
What all share (experiment): NCI-60 cell line screen, 48 h

Structures are written as SMILES. Several values for one entry are separate records, joined by “and”; a condition that tells them apart may be missing. Equal entries are not always repeated.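 Tested at 5 concentrations; 48 h exposure; 96-well plates; endpoints linearly interpolated, else capped at highest concentration. Abbreviation: GI50, concentration required for 50% inhibition of growth. TGI is the concentration that stops growth completely.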

As for `Cc1ccc(S(=O)(=O)ON2C(=O)c3cccc4cc([N+](=O)[O-])cc(c34)C2=O)cc1`, the TGI is 79.3 µM in the experiment on HT29 colon; greater than 100 µM with M14 melanoma; greater than 100 µM in the experiment with MDA-MB-231 breast; greater than 100 µM with NCI/ADR-RES ovarian; greater than 100 µM in the experiment on OVCAR-3 ovarian; greater than 100 µM with PC-3 prostate. Also, the TGI with RXF 393 renal, with SK-MEL-5 melanoma, with SN12C renal and in the experiment with UACC-62 melanoma was greater than 100 µM each time.

For `COc1cc(-c2nn(-c3cccc(NC(=O)Nc4ccc(Cl)c(C(F)(F)F)c4)c3)cc2-c2ccncc2)ccc1Cl`, the GI50 in the experiment with HT29 colon was 1.19 µM; in the experiment on M14 melanoma, 1.08 µM; in the experiment with MDA-MB-231 breast, 0.76 µM; in the experiment on NCI/ADR-RES ovarian, 1.04 µM; in the experiment on OVCAR-3 ovarian, 0.889 µM; in the experiment with PC-3 prostate it was 0.69 µM. The GI50 with RXF 393 renal was 1.18 µM; in the experiment with SK-MEL-5 melanoma, 0.818 µM; in the experiment on SN12C renal, 1.14 µM; in the experiment on UACC-62 melanoma, 0.738 µM. The TGI in the experiment on HT29 colon was determined as 4.45 µM; in the experiment on M14 melanoma, 3.71 µM; in the experiment on MDA-MB-231 breast, 2.6 µM; in the experiment on NCI/ADR-RES ovarian, 7.99 µM; with OVCAR-3 ovarian, 2.44 µM; in the experiment on PC-3 prostate, 2.45 µM. The TGI in the experiment with RXF 393 renal is 6.29 µM; in the experiment on SK-MEL-5 melanoma it was 2.89 µM; with SN12C renal it was 9.23 µM; with UACC-62 melanoma it was 2.09 µM.

As to `CCOC(=O)c1[nH]c2cc(Cl)ccc2c1[C@@H](C(=O)NC(C)(C)C)N(CC)C(=O)CCCCC#Cc1cccc2c1CN(C1CCC(=O)NC1=O)C2=O` (stereo not given in full), the GI50 in the experiment on HT29 colon is 2.13 µM; with M14 melanoma it was 0.213 µM; with MDA-MB-231 breast, less than 0.01 µM; with NCI/ADR-RES ovarian, 1.19 µM; with OVCAR-3 ovarian it was 1.58 µM; in the experiment on PC-3 prostate, less than 0.01 µM. Also, the GI50 in the experiment with RXF 393 renal was 0.113 µM; in the experiment with SK-MEL-5 melanoma it was 1.22 µM; with SN12C renal, 0.283 µM; with UACC-62 melanoma, 1.56 µM. The TGI is greater than 100 µM with HT29 colon; 17.7 µM with M14 melanoma; 1.68 µM in the experiment with MDA-MB-231 breast; greater than 100 µM with NCI/ADR-RES ovarian; greater than 38.9 µM in the experiment on OVCAR-3 ovarian; 9.36 µM in the experiment with PC-3 prostate. Moreover, the TGI with RXF 393 renal is 3.91 µM; with SK-MEL-5 melanoma it was 2.56 µM; in the experiment on SN12C renal it was greater than 100 µM; in the experiment on UACC-62 melanoma, 5.51 µM.

Regarding `O=C1C2CCN(CC2)C1CN1CCOCC1` (stereo not given), the TGI in the experiment with HT29 colon worked out at 16.9 µM; with M14 melanoma, 6.46 µM; in the experiment with MDA-MB-231 breast it was 40.5 µM; in the experiment on NCI/ADR-RES ovarian it was 3.41 µM; in the experiment on OVCAR-3 ovarian it was 4.18 µM; with PC-3 prostate, 34.7 µM. Further, the TGI in the experiment on RXF 393 renal came to 5.33 µM; with SK-MEL-5 melanoma it was 31 µM; in the experiment with SN12C renal, 8.28 µM; in the experiment on UACC-62 melanoma it was 30.9 µM.

With `OC1CC2CCC(C1)N2CCCN1c2ccccc2Sc2ccc(Cl)cc21` (stereo not given), the TGI in the experiment on HT29 colon came to 3.63 µM; with M14 melanoma, 3.56 µM; with MDA-MB-231 breast it was 3.66 µM; in the experiment on NCI/ADR-RES ovarian, 6.32 µM; with OVCAR-3 ovarian it was 8.27 µM; in the experiment on PC-3 prostate, 4.8 µM. For the same compound, the TGI in the experiment with RXF 393 renal came to 4.04 µM; in the experiment with SK-MEL-5 melanoma, 3.13 µM; with SN12C renal, 13.7 µM; in the experiment with UACC-62 melanoma it was 3.39 µM.

For `CN(C)CCNc1ccc2ncn3c4ccc(O)cc4c(=O)c1c23`, the TGI in the experiment on HT29 colon stood at 7.39 µM; with M14 melanoma, 8.47 µM; with MDA-MB-231 breast it was 5.44 µM; in the experiment with NCI/ADR-RES ovarian it was 18.9 µM; with OVCAR-3 ovarian it was 13.4 µM; in the experiment with PC-3 prostate it was 10.8 µM. Further, the TGI was determined as 2.58 µM with RXF 393 renal, 8.52 µM in the experiment on SK-MEL-5 melanoma, 13.3 µM with SN12C renal and 15.9 µM in the experiment on UACC-62 melanoma.

On to `COc1ccc(Br)cc1NC(=O)Nc1cccc2c1ccn2Cc1ccnc(N)c1`, for which the GI50 with HT29 colon was 2.59 µM and 2.24 µM; in the experiment with M14 melanoma it was 3.09 µM and 2.68 µM; with MDA-MB-231 breast, 3.93 µM and 3.01 µM; in the experiment with NCI/ADR-RES ovarian it was 6.08 µM and > 10 µM; with OVCAR-3 ovarian it was 8.98 µM and > 10 µM; in the experiment on PC-3 prostate, 4.52 µM and 4.5 µM. For the same compound, the GI50 in the experiment on RXF 393 renal is 4.6 µM and 9.23 µM; with SK-MEL-5 melanoma, 10.2 µM and 5.28 µM; in the experiment on SN12C renal it was 5.48 µM and 7.26 µM; in the experiment on UACC-62 melanoma, 6.17 µM and 5.94 µM. Moreover, the TGI in the experiment with HT29 colon is 8.09 µM and > 10 µM; in the experiment with M14 melanoma it was 10.5 µM and > 10 µM; in the experiment with MDA-MB-231 breast, 10.6 µM and > 10 µM; in the experiment on NCI/ADR-RES ovarian it was 60.3 µM and > 10 µM; in the experiment with OVCAR-3 ovarian, 23.6 µM and > 10 µM; in the experiment on PC-3 prostate it was greater than 54.8 µM. Also, the TGI was 16.1 µM and > 10 µM in the experiment with RXF 393 renal; 23 µM and > 10 µM in the experiment with SK-MEL-5 melanoma; 30.8 µM and > 10 µM in the experiment with SN12C renal; 21.7 µM and > 10 µM in the experiment with UACC-62 melanoma.

In the case of `Cc1ccc2c(C(C[N+](=O)[O-])c3ccccc3)c(-c3ccccc3)[nH]c2c1` (stereo not given), the GI50 was 20.9 µM in the experiment with HT29 colon; 16 µM with M14 melanoma; 35.9 µM in the experiment with MDA-MB-231 breast; 14.2 µM in the experiment on NCI/ADR-RES ovarian; 16.3 µM in the experiment with OVCAR-3 ovarian; 20.9 µM with PC-3 prostate. Further, the GI50 with RXF 393 renal is 10.5 µM; in the experiment with SK-MEL-5 melanoma it was 50.6 µM; with SN12C renal, 44.1 µM; in the experiment on UACC-62 melanoma, 14.1 µM. Further, the TGI in the experiment on HT29 colon, in the experiment on M14 melanoma, in the experiment with MDA-MB-231 breast, with NCI/ADR-RES ovarian, with OVCAR-3 ovarian and in the experiment on PC-3 prostate was greater than 95 µM each time. The TGI was 81.3 µM in the experiment with RXF 393 renal, greater than 95 µM in the experiment with SK-MEL-5 melanoma, greater than 95 µM in the experiment on SN12C renal and greater than 95 µM in the experiment with UACC-62 melanoma.

As to `CN(C)c1ccc(/C=N/NC(N)=S)nc1`, the GI50 in the experiment on HT29 colon was 4.46 µM; in the experiment with M14 melanoma, 2.28 µM; with MDA-MB-231 breast, 5.43 µM; in the experiment on NCI/ADR-RES ovarian, 4.08 µM; in the experiment with OVCAR-3 ovarian it was 2.54 µM; in the experiment with PC-3 prostate, 3.76 µM. Also, the GI50 with RXF 393 renal was 4.16 µM; in the experiment on SK-MEL-5 melanoma, 2.52 µM; with SN12C renal, 3.51 µM; with UACC-62 melanoma it was 3.39 µM. The TGI was greater than 100 µM in the experiment on HT29 colon; 5.23 µM in the experiment with M14 melanoma; greater than 100 µM in the experiment with MDA-MB-231 breast; greater than 100 µM in the experiment with NCI/ADR-RES ovarian; greater than 100 µM with OVCAR-3 ovarian; greater than 100 µM in the experiment on PC-3 prostate. The TGI in the experiment on RXF 393 renal, in the experiment with SK-MEL-5 melanoma, with SN12C renal and in the experiment with UACC-62 melanoma was greater than 100 µM each time.

For the origin of these results see PubChem BioAssay (NCI).
